Structures are written as SMILES.

What is called melting point is the temperature, or range, at which the solid turns liquid. The compound `Cc1ccc(N(c2ccc(-c3ccccc3)cc2)c2ccc(C)c(C)c2)cc1` had a melting point of 128 to 130 °C.

Consider `CCCC(=O)c1cnc2ccsc2c1Nc1ccc(F)cc1C`, for which the melting point fell in the range of 153 to 155 °C.

`COCCOC(=O)Nc1cccc(C)c1COc1cccn2c(C=O)c(C)nc12` returned a melting point of 119 to 120 °C.

Regarding `Cc1cccc(C)c1NC(=O)CCSc1cc(C(C)(C)C)c(O)c(C(C)(C)C)c1`, the melting point was in the range of 142 to 144 °C.

In turn, `CC(=O)NCCc1ccc(NC(=O)C=C2CC(C(=O)O)Nc3cc(Cl)cc(Cl)c32)cc1` (racemic) returned a melting point of 254 to 256 °C.

Compound `CCCN1CCc2[nH]c3ccc4sccc4c3c2C1` yielded a melting point of 143 to 144 °C.

For the compound `CCSc1nnc(-c2ccccc2)n1Cc1ccc([N+](=O)[O-])cc1`, the melting point came out at 108 °C.

The compound `Nc1cnc(NCCSCc2csc(CN3CCCCC3)c2)[nH]c1=O` came in with a melting point of 150 to 155 °C.

Turning to `COc1ccc(C=CC(=O)CC(=O)C=Cc2ccc(OC)c(O)c2)cc1O`, the melting point lay within 190 to 192 °C.

Take `CCCCCCCCCCCCCCCCCCNC(=O)OCC(CNS(=O)(=O)CCCCl)COC` (stereo not given): the melting point lay in the range of 72 to 73 °C.

In turn, `CCCCN(Cc1ccccc1)C(=O)Nc1ccc(C)cc1C` displayed a melting point of 70 to 71 °C.

With `O=c1c([N+](=O)[O-])c(Cl)nc2sc(CCC3CCCCC3)nn12`, the melting point was in the range of 136 to 137 °C.

`COC(=O)C1N=C(c2ccccc2)c2cc(Cl)ccc2NC1=O` (stereo not given): the melting point turned out to be 222 °C.

`CC(C)OC(=O)N(O)CCN1CCCCC1` returned a melting point of 78 to 79 °C.

On to `Cc1ccccc1CC(=NC#N)NC(NC(=O)Cc1ccc2c(c1)OCO2)C(C)(C)C` (stereo not given), for which the melting point lay in the range of 167 to 169 °C.

In turn, `Cc1nc2c(-c3ccc(N4CCN(C)CC4)cc3)cnn2c(N)c1-c1ccc(F)cc1` gave a melting point of 289 to 291 °C.

`CC(=O)Nc1ccc2c(c1)CCC1CC(=O)NN=C21` (stereo not given) came in with a melting point of 284 °C.

As for `NS(=O)(=O)c1ccc(NC(=O)CNc2ccccc2)c(F)c1`, the melting point lay within 197 to 198 °C.

For the compound `COc1ccc(-c2c(Cl)c(COc3ccccn3)nc3sc4c(c23)CCN(Cc2ccccc2)C4)cc1OC`, the melting point lay within 165 to 167 °C.

Turning to `CSc1ncc(C(C)O)c(N)n1` (stereo not given), the melting point fell in the range of 140 to 142 °C.

`CCCc1cc(NC(=O)c2c(C)nn(C)c2C)c(C)cc1C(OC)(C(F)(F)F)C(F)(F)F`: the melting point was 132 to 134 °C.

Regarding `CCn1ccnc1S(N)(=O)=O`, the melting point fell in the range of 123 to 125 °C.

As to `Cc1nc2c(N)nc3cc(OCCC4CCN(C(=O)C5CCCC5)CC4)ccc3c2n1CC(C)C`, the melting point fell in the range of 236 to 238 °C.

In turn, `COc1cc(C)ccc1OCc1ccccc1` came in with a melting point of 38 to 39 °C.

Compound `O=C(NCCc1ccccc1)[C@@H]1Cc2ccccc2N1` came in with a melting point of 112 to 116 °C.

Compound `Nc1c(Cl)cc(C(O)CNCCCCCCOCCCc2ccc(C(=O)O)cc2)cc1Cl` (stereo not given) came in with a melting point of 190 to 191 °C.

On to `Cc1ccc(C(=O)c2cccnc2C(=O)O)cc1`, for which the melting point lay within 168 to 170 °C.

In the case of `COc1c(Cl)cc(Br)cc1Cl`, the melting point was 67 to 68 °C.

On to `CCC(C(O)c1ccc(Cl)cc1)n1ncn(-c2ccc(N3CCN(c4ccc(O)cc4)CC3)cc2)c1=O` (stereo not given), for which the melting point worked out at 270 °C.

For `COc1cccc2sc(NN)nc12`, the melting point lay within 215 to 220 °C.

Regarding `CC(C)CNC1NC(=O)N(c2cccs2)C(=O)N1`, the melting point fell in the range of 265 to 268 °C.

In the case of `CC(=O)N[C@@H](CCC(=O)O)C(N)=O`, the melting point fell in the range of 85 to 87 °C.

As to `CC(C)(C)OC(=O)c1n[nH]c2nc(N3CCNCC3)ccc12`, the melting point fell in the range of 190 to 191 °C.

`O=c1[nH]ncnc2c1ccc1ncnc12` registered a melting point of 266 to 268 °C.

As to `CCP(=O)(CC)Cc1ccc(NC(=O)/C=C/c2cccc(-c3ccc(C)cc3)c2)cc1`, the melting point lay in the range of 197 to 198 °C.

Turning to `NS(=O)(=O)c1cc(C=O)cs1`, the melting point is 146 to 149 °C.

Regarding `COc1ccc(Nc2nc(Nc3ccc(OC)c(F)c3)nc(OCC3CCCCC3)n2)cc1F`, the melting point came to 181 °C.

Consider `Cc1cnn(-c2nc3ccccc3c(=O)[nH]2)c1`, for which the melting point was 169 to 171 °C.

`CC(=O)OCC1=C(C(=O)O)N2C(=O)C(NC(=O)Cc3ccc(CN=[N+]=[N-])cc3)C2SC1` (stereo not given) displayed a melting point of 135 to 136 °C.

`CON=Cc1cc(N2C(=O)C3=C(CCCC3)C2=O)c(Cl)cc1Cl` gave a melting point of 122 to 124 °C.

In turn, `CC(CCNC1=Nc2ccc(S(=O)(=O)N(C)C)c3cccc1c23)n1ccnc1` (stereo not given) gave a melting point of 221 to 222 °C.

In turn, `O=C(O)c1ccc(C(Cc2ccc(F)cc2)C(=O)Nc2nc3ccccc3o2)cc1` (stereo not given) registered a melting point of 199 to 201 °C.

As for `Cc1ccc(C(=O)Nc2ccccc2O)c(F)c1`, the melting point was 195 to 197 °C.

The compound `C=CCOc1ccc2ccc(NC(=O)c3ccc(OC)cc3)nc2n1` came in with a melting point of 108 °C.

The compound `Cc1cc(COc2ccc(C(=O)NC[C@@H](C(=O)NO)N3CCCCC3)cc2)c2ccccc2n1` displayed a melting point of 190 °C.

As for `CN=C(NC#N)N1CCc2nc(N)sc2C1`, the melting point was in the range of 231 to 234 °C.

Compound `CCN(CC)CCOCCC1CCCCN1C(=O)N1c2ccccc2NC(=O)c2csc(C)c21` (stereo not given) displayed a melting point of 105 to 107 °C.

As for `Cc1cc(S(=O)(=O)N2c3ccccc3CC2C(=O)NCCOc2ccc(CC(=O)O)cc2)ccc1-c1cccc(C(F)(F)F)c1` (stereo not given), the melting point was determined as 92 °C.

On to `C=CC(C)ONC(=O)c1nc(-c2ccc(Cl)c(OC)c2F)cc(N)c1Cl` (stereo not given), for which the melting point was 176 to 179 °C.

`Brc1cccc2c(-c3ccccc3)coc12` returned a melting point of 69.5 to 71.5 °C.

Compound `Clc1cccc(Cl)c1NCC1CC1` returned a melting point of 149 to 158 °C.

As for `Cc1cc(-c2noc(CO)n2)ccc1Br`, the melting point was in the range of 111 to 112 °C.

Turning to `CC(Oc1ccccc1-c1ccc(Cl)c(C(=O)NCC23CC4CC(CC(C4)C2)C3)c1)C(=O)O` (stereo not given), the melting point was 107 to 110 °C.

For the compound `CCCCc1ccc(CC(Cl)C(=O)O)cc1` (stereo not given), the melting point is 52.7 to 53.6 °C.

`O=C(N[C@H]1CCCNC1=O)c1cccc(C(F)(F)F)c1` registered a melting point of 148 to 150 °C.

In turn, `COc1ccc(-c2nnc3c4ccccc4c(OCCCCO)nn23)cc1` registered a melting point of 180 to 182 °C.

The compound `CC(=CC(=O)O)c1ccc(-c2ccc(F)cc2F)cc1` yielded a melting point of 193 to 195 °C.

`N#Cc1cccc2c1CCCC2=O` displayed a melting point above 230 °C.

In turn, `NS(=O)(=O)c1cc(C(=O)O)cc(NCc2ccccc2)c1Oc1ccccc1` gave a melting point of 264 to 265 °C.

The compound `CCCCCc1nc2c(N)nc3ccccc3c2n1CCCCNS(C)(=O)=O` displayed a melting point of 137 to 138 °C.

`CON(C)Cc1nc2c(N)nc3ccccc3c2n1CC1CCOCC1` registered a melting point of 223 to 226 °C.

For `N#Cc1c[nH]cc1-c1ccc(Cl)cc1C(=O)c1ccccc1Cl`, the melting point fell in the range of 182 to 184 °C.

`CCCOc1ncc(NC(=O)N(C)C)cc1-c1nc2c(CCC)nn(C)c2c(=O)[nH]1` gave a melting point of 219 to 220 °C.

In turn, `CC1=C(C)C(=O)C(CCCCC#CCCCC#CCOC(N)=O)=C(C)C1=O` returned a melting point of 56 to 57 °C.

In the case of `CCOC(=O)c1ccc(OCc2csc3nc(C(=O)OCC)[nH]c(=O)c23)cc1`, the melting point was in the range of 205 to 208 °C.

Compound `COC1OCC[C@@H]1NC(=O)[C@H](CC(C)C)NC(=O)[C@H](CC(C)C)NC(=O)OCc1ccccc1` (stereo not given in full) returned a melting point of 76 to 77 °C.

On to `COc1ccc(CC(C)(C)NC(=O)N(C)O)cc1OC`, for which the melting point was in the range of 77 to 78 °C.

For the compound `C(=C(c1ccccc1)c1ccccc1)C1CCN(CCCCCCCCCCc2cccnc2)CC1`, the melting point lay in the range of 63 to 65 °C.

With `CN1CCN(c2cc(Cl)cc3c2c(=O)n(Cc2cccc(O)c2)c(=O)n3Cc2ccccc2)CC1`, the melting point lay in the range of 234 to 236 °C.

`Clc1ccc(-c2ccc(C3=NC[C@H](c4ccccc4)O3)cc2)cc1` showed a melting point of 122 °C.

The compound `COC(=O)c1[nH]c2c(C)ccc(C)c2c1-c1ccccc1` displayed a melting point of 143 to 145 °C.

`Cc1ccc(CN(C)C(=O)C23CC4CC(CC(C4)C2)C3)cc1` gave a melting point of 93 to 95 °C.

With `COc1nc(-c2ccccc2)c(-c2ccc(=O)n(C(C)C)n2)cc1C#N`, the melting point was in the range of 187 to 189 °C.

Compound `COC(=O)C1=C(C)NC(=O)N(C(=O)OC)C1c1cccc([N+](=O)[O-])c1` (stereo not given) displayed a melting point of 152 to 155 °C.

With `COCCNC(=O)c1cccc(-c2cccc3cc(Cc4ccc(F)cc4F)sc23)c1`, the melting point was 94 to 95 °C.

In turn, `CCOC(=O)c1ccc(N(C(C)=O)C(=O)c2ccc(C(=O)C(C)(C)C)cc2)cc1` displayed a melting point of 91 to 94 °C.

For `Fc1ccc(-c2cc3c(cc2Br)OCO3)cc1`, the melting point lay within 86 to 87.5 °C.

Regarding `CC(=O)OCC1OC(Oc2nc[nH]c2C(N)=O)C(OC(C)=O)C(OC(C)=O)C1OC(C)=O` (stereo not given), the melting point lay in the range of 234 to 235 °C.

The compound `O=C(O)c1ccc(Oc2nccs2)cc1` yielded a melting point of 162 to 163 °C.

`C#Cc1cccc(Nc2ncnc3ccc(S(=O)(=O)n4ccc(C=CC(=O)Nc5ccccc5NC(=O)OC(C)(C)C)c4)cc23)c1` registered a melting point of 146 to 150 °C.

`Nc1nc(=O)n(C(=O)c2cc(F)cc(F)c2)cc1F`: the melting point fell in the range of 227 to 231 °C.

In the case of `O=C(NCCSCc1cccc(NC(=O)C2CC2)c1)c1c(Cl)cccc1Cl`, the melting point was 46 to 47 °C.

Consider `CC1(C)Oc2cc3nc(SCc4ccccn4)[nH]c3cc2O1`, for which the melting point is 210 to 211 °C.

As to `Cn1c(=Nc2ccc(Cl)cc2)sc2ncccc2c1=O`, the melting point was 142 to 143 °C.

Take `COc1cc2c(=O)c(S(C)=O)nn(C)c2cc1OC` (stereo not given): the melting point was 262 to 264 °C.

In the case of `CCOCCOC(=O)C(=O)Nc1nc(-c2ccc(OC)cc2OC)cs1`, the melting point lay in the range of 118 to 120 °C.

`NNC1=NS(=O)(=O)c2cnccc2N1` yielded a melting point of 290 to 292 °C.

`CN1CC2(c3cccc(O)c3)CCCC1C2` (stereo not given) returned a melting point of 144 to 146 °C.

Turning to `Cc1c(CC(=O)N[C@@H](CO)C(=O)O)cc(-c2ccc(S(C)(=O)=O)cc2)n1-c1ccccc1`, the melting point fell in the range of 80 to 83 °C.

In turn, `O=CN(O)C(CS(=O)(=O)c1ccc(-c2ccc(C(F)(F)F)cc2)cc1)c1ccc2c(c1)OCO2` (stereo not given) registered a melting point of 160 °C.

(Values after a melting point compilation (Tetko et al.; mined from patent text by program, amines drawn as free bases though some values may be those of a salt).)
